Test results taken from ChEMBL document CHEMBL4411299, “A class of novel tubulin polymerization inhibitors exert effective anti-tumor activity via mitotic catastrophe” (Eur J Med Chem, 2019).
The source made the active and inactive calls. No cut-off for these calls is given here.

Columns and labels:
[1] = Stability in human liver microsomes assessed as parent compound remaining at 5 uM after 2 hrs in presence of NADPH regenerating system by LC-MS/MS analysis; type: ADME, Microsome
Tubulin = Tubulin (Sus scrofa, UniProt P02554+P02550); assay: (§1) Inhibition of porcine brain tubulin polymerization
Tubulin (Sus scrofa) = Tubulin (Sus scrofa) (UniProt P02554+P02550); assay: as §1
HeLa [2] = assay: Induction of apoptosis in human HeLa cells assessed as early apoptotic cells at 0.1 uM after 24 hrs by Annexin V-FITC/propidium iodide staining-based flow cytometric analysis (reference value: 3.65%); type: functional
HeLa [3] = assay: Induction of apoptosis in human HeLa cells assessed as viable cells at 0.1 uM after 24 hrs by Annexin V-FITC/propidium iodide staining-based flow cytometric analysis (reference value: 92.8%); type: functional; settings: read-out: Activity
[4] = AUC (0 to infinity) in female Sprague-Dawley rat at 1.5 mg/kg, iv administered as single dose by LC-MS/MS analysis; type: ADME, organism-based; set-up: dose 1.5 mg/kg, time infinity, route intravenous; settings: in vivo
[5] = Toxicity in mouse xenografted with human HeLa cells assessed as change in liver weight at 5 to 20 mg/kg, iv administered every other day up to 20 days; type: organism-based; settings: in vivo, 480 h
[6] = Toxicity in mouse xenografted with human HeLa cells assessed as effect on body weight at 5 to 20 mg/kg, iv administered every other day up to 20 days; type: organism-based; settings: in vivo, 480 h
HeLa [7] = assay: Antiproliferative activity against human HeLa cells after 48 hrs by MTT assay; type: functional
[8] = MRT (0 to infinity) in male Sprague-Dawley rat at 1.5 mg/kg, iv administered as single dose by LC-MS/MS analysis; type: ADME, organism-based; settings: in vivo
[9] = Apparent volume of distribution in Sprague-Dawley rat at 1.5 mg/kg, iv administered as single dose by LC-MS/MS analysis; type: ADME, organism-based; settings: in vivo, read-out: Vd(app)
[10] = MRT (0 to infinity) in female Sprague-Dawley rat at 1.5 mg/kg, iv administered as single dose by LC-MS/MS analysis; type: ADME, organism-based; settings: in vivo
HeLa [11] = assay: Cell cycle arrest in human HeLa cells assessed as reduction in accumulation of cells at S phase up to 0.4 uM after 24 hrs by propidium iodide staining-based flow cytometric analysis; type: functional
[12] = Half life in female Sprague-Dawley rat at 1.5 mg/kg, iv administered as single dose by LC-MS/MS analysis; type: ADME, organism-based; settings: in vivo
[13] = Apparent volume of distribution in male Sprague-Dawley rat at 1.5 mg/kg, iv administered as single dose by LC-MS/MS analysis; type: ADME, organism-based; settings: in vivo, read-out: Vd(app)
HeLa [14] = assay: Antitumor activity against human HeLa cells xenografted in nude mouse assessed as tumor weight at 20 mg/kg, iv administered every other day up to 20 days (reference value: 1.014 +/- 0.116g); type: functional
[15] = MRT (0 to t) in male Sprague-Dawley rat at 1.5 mg/kg, iv administered as single dose by LC-MS/MS analysis; type: ADME, organism-based; settings: in vivo
HeLa [16] = assay: Inhibition of colony formation in human HeLa cells after 2 weeks by crystal violet staining-based assay; type: functional, cell-based
A2780 = assay: Antiproliferative activity against human A2780 cells after 48 hrs by MTT assay; type: functional; settings: A2780, 48 h
[17] = Cmax in Sprague-Dawley rat at 1.5 mg/kg, iv administered as single dose by LC-MS/MS analysis; type: ADME, organism-based; set-up: dose 1.5 mg/kg, route intravenous; settings: in vivo
HeLa [18] = assay: Antitumor activity against human HeLa cells xenografted in nude mouse assessed as tumor weight at 5 mg/kg, iv administered every other day up to 20 days (reference value: 1.014 +/- 0.116g); type: functional
HeLa [19] = assay: Induction of apoptosis in human HeLa cells assessed as necrotic cells at 0.05 uM after 24 hrs by Annexin V-FITC/propidium iodide staining-based flow cytometric analysis (reference value: 0.05%); type: functional
[20] = Half life in male Sprague-Dawley rat at 1.5 mg/kg, iv administered as single dose by LC-MS/MS analysis; type: ADME, organism-based; settings: in vivo
Tubulin (Homo sapiens) = Tubulin (Homo sapiens) (UniProt P68371+Q9H4B7+P0DPH7+P68366+Q13509+Q71U36+P04350+Q3ZCM7+P07437+P68363+Q9BQE3+Q6PEY2+Q13885+Q9BVA1+Q9BUF5); assay: Inhibition of tubulin polymerization in human HeLa cells assessed as induction of microtubule fiber breakdown at 0.02 uM after 12 hrs by DAPI staining-based confocal fluorescence microscopic analysis; type: cell-based
[21] = AUC (0 to t) in female Sprague-Dawley rat at 1.5 mg/kg, iv administered as single dose by LC-MS/MS analysis; type: ADME, organism-based; settings: in vivo

Tubulin (Sus scrofa), sequence (P02550 whole entry, looked up): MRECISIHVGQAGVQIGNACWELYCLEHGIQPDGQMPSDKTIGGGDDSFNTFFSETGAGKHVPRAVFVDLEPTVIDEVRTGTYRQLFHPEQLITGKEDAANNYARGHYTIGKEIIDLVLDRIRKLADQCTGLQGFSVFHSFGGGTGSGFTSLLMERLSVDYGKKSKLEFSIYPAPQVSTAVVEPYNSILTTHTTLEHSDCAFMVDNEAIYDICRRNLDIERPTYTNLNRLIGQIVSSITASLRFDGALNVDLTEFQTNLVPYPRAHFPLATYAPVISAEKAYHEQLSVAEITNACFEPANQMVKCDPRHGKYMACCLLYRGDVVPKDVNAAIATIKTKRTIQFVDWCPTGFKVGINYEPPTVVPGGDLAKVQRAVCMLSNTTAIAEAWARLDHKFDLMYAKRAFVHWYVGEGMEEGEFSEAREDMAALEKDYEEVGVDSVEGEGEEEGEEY
Tubulin (Sus scrofa), sequence (P02554 whole entry, looked up): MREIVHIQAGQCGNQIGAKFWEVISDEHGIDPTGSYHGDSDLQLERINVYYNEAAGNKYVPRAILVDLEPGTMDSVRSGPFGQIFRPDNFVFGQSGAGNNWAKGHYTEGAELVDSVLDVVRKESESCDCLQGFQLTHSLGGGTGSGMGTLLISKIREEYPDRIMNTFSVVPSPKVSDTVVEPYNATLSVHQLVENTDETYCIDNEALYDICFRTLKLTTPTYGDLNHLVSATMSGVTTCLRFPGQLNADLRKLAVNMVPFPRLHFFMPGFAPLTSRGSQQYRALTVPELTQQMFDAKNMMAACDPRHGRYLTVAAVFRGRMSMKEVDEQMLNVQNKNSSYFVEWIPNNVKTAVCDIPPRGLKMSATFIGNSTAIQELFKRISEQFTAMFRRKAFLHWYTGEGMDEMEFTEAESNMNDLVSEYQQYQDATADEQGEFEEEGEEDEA

COC(=O)N1N=C(c2cccc(C)c2)CC1c1cc(OC)c(OC)c(OC)c1 (stereo not given)
Stability [1]: 31.1% | IC50 (Tubulin): 1490 nM | inhibition (Tubulin (Sus scrofa)): Dose-dependent effect | Activity (HeLa [2]): 17.3% | viability at 0.1 µM (HeLa [3]): 75.8% | AUC(0-inf) [4]: 336 ng·h/mL | Activity [5]: Non-Toxic | Activity [6]: Non-Toxic | GI50 (HeLa [7]): 50 nM | MRT inf [8]: 60 min | Vd [9]: 5.03 L/kg | MRT inf [10]: 70.8 min | Activity (HeLa [11]): Active | half-life [12]: 55.8 min | Vd [13]: 3.82 L/kg | Activity (HeLa [14]): 0.266 g | MRT last [15]: 51 min | inhibition (HeLa [16]): Dose-dependent effect | GI50 (A2780): 600 nM | Cmax [17]: 594 ng/mL | Activity (HeLa [18]): 0.812 g | Activity (HeLa [19]): 0.46% | half-life [20]: 52.2 min | Activity (Tubulin (Homo sapiens)): Active | AUC(0-t) [21]: 319 ng·h/mL
